# Laboratory results as given in paper PMC12526212, “Novel Isolongifolenone-Based Caprolactam Derivatives as Potential Anticancer Agents via the p53/mTOR/Autophagy Pathway” (Molecules, 2025).
# How the values were obtained:
# [1] = system: MCF-7 multicellular tumor spheroids; experiment: 3D spheroid tumor model (calcein AM/PI); assay type: cell-based, human; conditions: E10 1, 5 and 10 μM, 4 days
# Description: Three-dimensional (3D) cell culture provides an environment that allows cells to grow and interact with their surroundings in all spatial dimensions, closely mimicking the physiological conditions found in vivo [44]. […] To evaluate the long-term antitumor effects of E10 in a more physiologically relevant model, a 3D spheroid tumor model was established using MCF-7 breast cancer cells. Each spheroid was formed by approximately 2000 MCF-7 cells and cultured for 3 days to allow spheroid maturation. These spheroids were subsequently treated with varying concentrations of E10 (1, 5, and 10 μM) at 48-h intervals over a period of 4 days. For visualization, the multicellular tumor spheroids (MCTSs) were stained with calcein AM and propidium iodide (PI) in culture medium for 1.5 h. The live/dead cell distribution within the spheroids was then visualized using laser scanning confocal microscopy. […] This limited cell death is likely attributable to hypoxic and nutrient-deprived conditions resulting from excessive cell proliferation.
# […] MCF-7 cells were seeded into cell-repellent 96-well U-bottom plates (Sbio, Tokyo, Japan) at a density of 3000 cells per well and cultured for 72 h to promote spheroid formation. […] After treatment, spheroids were stained with 5 μM PI and 10 μM Calcein-AM, and observed under a fluorescence microscope (Olympus, Tokyo, Japan).
# MCF-7 cells = experiment: Cell cycle assay (PI, flow cytometry); assay type: cell-based, human; conditions: 0.5, 1.0, 2.0 µM, 24 h
# Method: As a cell progresses into different cell cycle phases, its DNA content varies because of DNA synthesis (which is required to prepare additional chromosome copies prior to cell division). Consequently, a flow cytometric analysis of DNA content can provide information on the number of cells in different cell cycle phases.
# For cell cycle analysis, MCF-7 cells were seeded at a density of 2 × 10^5 cells per well in 6-well plates. MCF-7 cells were treated with different concentrations of compound E10 for 24 h. After that, the cells were washed with PBS twice, collected by trypsin enzymic digestion and centrifugation, and the collected cells were subsequently fixed with 70% ice-cold ethanol overnight at 4 °C. The cells were stained with PI (50 μg/mL) the next day. The cell cycle distributions were measured through flow cytometry (BD), and the data were analyzed by Modfit 5.1 software.
structure (smiles),measurement,setting,value
"CC1(C)C2=CC(=O)N(C(=O)C=Cc3cccc(C(F)(F)F)c3)CC(C)(C)C23CCC1C3 (centres unmarked) [E10, 5,5,9,9-Tetramethyl-3-(3-(3-(trifluoromethyl)phenyl)acryloyl)-4,5,6,7,8,9-hexahydro-5a,8-methanobenzo[d]azepin-2(3H)-one]",viability and structural integrity of MCF-7 MCTSs,[1],dose-dependent inhibitory effect
same,effect on cell cycle,MCF-7 cells,cell cycle arrest at the G0/G1 phase
